Data reported in patent US8466107B2, “Fibrin-binding peptides and conjugates thereof” (Bracco Imaging SpA, priority 2006, dated 2013).
Bridge positions count the residues as written; N and C are the ends. Square brackets hold non-standard residues; d marks the D form. Peptide text beside a SMILES is read from it. * marks the point of attachment. 5FAM = O=C1OC2(c3ccc(O)cc3Oc3cc(O)ccc32)c2ccc(C(=O)*)cc21; Phe(3,4-F2) = N[C@@H](Cc1ccc(F)c(F)c1)C(=O)O; Phe(4-F) = N[C@@H](Cc1ccc(F)cc1)C(=O)O; Cha = N[C@@H](CC1CCCCC1)C(=O)O; AEEA = NCCOCCOCC(=O)O

Biological target: DDE (fibrin-derived polypeptide) (Homo sapiens, UniProt P02671+P02675+P02679)
Test: Direct binding fluorescence polarization (FP) assay using 5-carboxyfluorescein labeled peptides
Details: 20 nM CF5-labeled peptide, serial dilutions of DDE, anisotropy read at 485 nm; read-out: KD (μM) Direct Binding (n = 2)
Experimental: Assay of Fibrin Binding Peptides by Direct Binding Fluorescence Polarization (FP) Procedure using 5-Carboxyfluoresein Labeled Peptides
Protocol • 1. Prepare 1 mL of 40 nM solution of 5-carboxyfluorescein-labeled peptide in HEPES dilution buffer (HDB) with 0.01% Tween. • HDB (10 mM HEPES, 150 mM […], 2 mM CaCl2) • 2. Dilute the 40 nM solution to obtain 1 ml of a 20 nM solution of the test 5-carboxyfluorescein-labeled peptide. • 3. Prepare a solution of DDE at a concentration that will be approximately 5-10 fold greater than the expected KD. For the described assay an 8 μM concentration of DDE was prepared. • 4. Mix equal volumes of the DDE solution with the 40 nM peptide solution. • 5. Prepare serial dilutions of DDE in a solution consisting of the binding buffer with 0.01% Tween20 and 20 nM of the 5-carboxyfluorescein-labeled peptide. • 6. Make dilutions as shown in the following table in a Labsystems 384-well microplate and mix by repeated aspiration and dispensing of the solution into the wells. • 7. Centrifuge the plate at 2000 RPM for 5 minutes to remove air pockets in the wells. • 8. Read in Tecan Polarion Plate Reader at 485 nm to obtain the anisotropy value.
The anisotropy (in mP—millipolarization units) vs the logarithm of the concentration (micromoles/liter) of the receptor concentration is graphed. The dissociation constant is obtained at the midpoint of the curve whose extrema are Afree and Abound where Afree is the anisotropy of the free peptide and Abound is the anisotropy of the fully bound peptide. The theory, methods of operation and mathematical analysis is described in, for example, the following reference: Fluorescence Polarization Technical Resource Guide Technical Resource Guide 4th Edn. Invitrogen Corporation•501 Charmany Drive•Madison, Wis. 53719 USA. Particularly, the mathematical analysis of the data and obtaining binding constants is described in Chapter 8: Analysis of FP Binding Data pp 8-2-8-7.

Chain of DDE (fibrin-derived polypeptide) (P02671 124-216): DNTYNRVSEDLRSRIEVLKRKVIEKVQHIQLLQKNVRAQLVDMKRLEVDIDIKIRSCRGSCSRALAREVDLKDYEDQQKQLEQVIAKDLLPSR
Chain of DDE (fibrin-derived polypeptide) (P02675 164-491): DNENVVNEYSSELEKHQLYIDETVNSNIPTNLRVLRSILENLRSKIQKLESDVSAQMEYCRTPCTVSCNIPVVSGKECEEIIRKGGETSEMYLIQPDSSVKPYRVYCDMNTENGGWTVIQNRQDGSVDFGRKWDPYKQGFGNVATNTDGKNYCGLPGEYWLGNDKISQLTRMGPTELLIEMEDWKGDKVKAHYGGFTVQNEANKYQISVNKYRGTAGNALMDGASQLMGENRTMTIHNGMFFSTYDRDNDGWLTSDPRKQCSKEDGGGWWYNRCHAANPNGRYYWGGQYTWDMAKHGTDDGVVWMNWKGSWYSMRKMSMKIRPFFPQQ
Chain of DDE (fibrin-derived polypeptide) (P02679 114-432): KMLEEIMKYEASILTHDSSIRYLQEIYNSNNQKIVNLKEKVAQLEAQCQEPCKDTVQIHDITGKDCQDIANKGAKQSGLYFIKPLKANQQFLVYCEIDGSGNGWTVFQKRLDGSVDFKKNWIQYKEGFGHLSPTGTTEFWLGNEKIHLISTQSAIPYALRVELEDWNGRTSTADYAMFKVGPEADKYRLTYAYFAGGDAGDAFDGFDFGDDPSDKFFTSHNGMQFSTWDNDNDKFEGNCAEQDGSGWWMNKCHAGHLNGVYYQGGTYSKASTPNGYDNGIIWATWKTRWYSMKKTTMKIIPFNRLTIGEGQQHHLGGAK
Chain of DDE (fibrin-derived polypeptide) (P02671 36-97): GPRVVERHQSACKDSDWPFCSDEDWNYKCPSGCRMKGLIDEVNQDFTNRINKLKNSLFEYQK
Chain of DDE (fibrin-derived polypeptide) (P02675 45-152): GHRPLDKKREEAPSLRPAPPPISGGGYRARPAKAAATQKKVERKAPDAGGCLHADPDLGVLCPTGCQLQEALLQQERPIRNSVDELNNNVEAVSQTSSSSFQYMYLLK
Chain of DDE (fibrin-derived polypeptide) (P02679 27-88): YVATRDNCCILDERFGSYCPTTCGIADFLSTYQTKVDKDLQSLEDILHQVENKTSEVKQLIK

Kd [µM]	Structure (SMILES)
0.45	CC(=O)N[C@@H](CO)C(=O)NCC(=O)N[C@@H](CO)C(=O)NCC(=O)NCCOCCOCC(=O)N[C@@H](Cc1c[nH]c2ccccc12)C(=O)N[C@@H](CCC(N)=O)C(=O)N1CCC[C@H]1C(=O)N[C@H]1CSSC[C@@H](C(=O)N[C@@H](Cc2c[nH]c3ccccc23)C(=O)N[C@@H](CC(=O)O)C(=O)N2CCC[C@H]2C(=O)NCC(=O)NCC(=O)NCC(=O)N[C@@H](CCCCNC(=O)c2ccc3c(c2)C(=O)OC32c3ccc(O)cc3Oc3cc(O)ccc32)C(N)=O)NC(=O)[C@H](Cc2ccccc2)NC(=O)[C@H]([C@@H](C)O)NC(=O)[C@H](Cc2c[nH]c3ccccc23)NC(=O)[C@H](CO)NC(=O)[C@H](CCC(=O)O)NC(=O)[C@H](Cc2c[nH]c3ccccc23)NC(=O)[C@@H]2CCCN2C1=O [Seq017-CF5] (Ac-SGSG[AEEA]WQPCPWESWTFCWDPGGGK(5FAM)-NH2; disulfide 9-17)
0.2	CC(=O)N[C@@H](Cc1c[nH]c2ccccc12)C(=O)N[C@@H](CCC(N)=O)C(=O)N1CCC[C@H]1C(=O)N[C@H]1CSSC[C@@H](C(=O)N[C@@H](Cc2c[nH]c3ccccc23)C(=O)N[C@@H](CC(=O)O)C(=O)N2CCC[C@H]2C(=O)NCC(=O)NCC(=O)NCC(=O)N[C@@H](CCCCNC(=O)c2ccc3c(c2)C(=O)OC32c3ccc(O)cc3Oc3cc(O)ccc32)C(N)=O)NC(=O)[C@H](CC2CCCCC2)NC(=O)[C@H]([C@@H](C)O)NC(=O)[C@H](Cc2c[nH]c3ccccc23)NC(=O)[C@H](CO)NC(=O)[C@H](CCC(=O)O)NC(=O)[C@H](Cc2c[nH]c3ccccc23)NC(=O)[C@@H]2CCCN2C1=O [Seq018-CF5, Ac-WQPC*PWESWT-Cha-C*WDPGGGK(CF5)-NH2] (Ac-WQPCPWESWT[Cha]CWDPGGGK(5FAM)-NH2; disulfide 4-12)
1.02	CC(=O)N[C@@H](Cc1c[nH]c2ccccc12)C(=O)N[C@@H](CCC(N)=O)C(=O)N1CCC[C@H]1C(=O)N[C@H]1CSSC[C@@H](C(=O)N[C@@H](Cc2c[nH]c3ccccc23)C(=O)N[C@@H](CC(=O)O)C(=O)N2CCC[C@H]2C(=O)NCC(=O)NCC(=O)NCC(=O)N[C@@H](CCCCNC(=O)c2ccc3c(c2)C(=O)OC32c3ccc(O)cc3Oc3cc(O)ccc32)C(N)=O)NC(=O)[C@H](Cc2ccc(F)cc2)NC(=O)[C@H]([C@@H](C)O)NC(=O)[C@H](Cc2c[nH]c3ccccc23)NC(=O)[C@H](CO)NC(=O)[C@H](CCC(=O)O)NC(=O)[C@H](Cc2c[nH]c3ccccc23)NC(=O)[C@@H]2CCCN2C1=O [Seq019-CF5, Ac-WQPC*PWESWT-Ffe4-C*WDPGGGK(CF5)-NH2] (Ac-WQPCPWESWT[Phe(4-F)]CWDPGGGK(5FAM)-NH2; disulfide 4-12)
0.7	CC(=O)N[C@@H](Cc1c[nH]c2ccccc12)C(=O)N[C@@H](CCC(N)=O)C(=O)N1CCC[C@H]1C(=O)N[C@H]1CSSC[C@@H](C(=O)N[C@@H](Cc2c[nH]c3ccccc23)C(=O)N[C@@H](CC(=O)O)C(=O)N2CCC[C@H]2C(=O)NCC(=O)NCC(=O)NCC(=O)N[C@@H](CCCCNC(=O)c2ccc3c(c2)C(=O)OC32c3ccc(O)cc3Oc3cc(O)ccc32)C(N)=O)NC(=O)[C@H](Cc2ccc(F)c(F)c2)NC(=O)[C@H]([C@@H](C)O)NC(=O)[C@H](Cc2c[nH]c3ccccc23)NC(=O)[C@H](CO)NC(=O)[C@H](CCC(=O)O)NC(=O)[C@H](Cc2c[nH]c3ccccc23)NC(=O)[C@@H]2CCCN2C1=O [Seq020-CF5, Ac-WQPC*PWESWT-F34fe-C*WDPGGGK(CF5)-NH2] (Ac-WQPCPWESWT[Phe(3,4-F2)]CWDPGGGK(5FAM)-NH2; disulfide 4-12)
0.28	C[C@@H](O)[C@@H]1NC(=O)[C@H](Cc2c[nH]c3ccccc23)NC(=O)[C@H](CO)NC(=O)[C@H](CCC(=O)O)NC(=O)[C@H](Cc2c[nH]c3ccccc23)NC(=O)[C@@H]2CCCN2C(=O)[C@@H](NC(=O)[C@@H]2CCCN2C(=O)[C@H](CCC(N)=O)NC(=O)[C@H](Cc2c[nH]c3ccccc23)NC(=O)CNC(=O)[C@@H](N)CCCNC(=N)N)CSSC[C@@H](C(=O)N[C@@H](Cc2c[nH]c3ccccc23)C(=O)N[C@@H](CC(=O)O)C(=O)N2CCC[C@H]2C(=O)NCC(=O)NCC(=O)NCC(=O)N[C@@H](CCCCNC(=O)c2ccc3c(c2)C(=O)OC32c3ccc(O)cc3Oc3cc(O)ccc32)C(N)=O)NC(=O)[C@H](Cc2ccccc2)NC1=O [Seq022-CF5] (H-RGWQPCPWESWTFCWDPGGGK(5FAM)-NH2; disulfide 6-14; N-terminus assumed)
0.11	C[C@@H](O)[C@@H]1NC(=O)[C@H](Cc2c[nH]c3ccccc23)NC(=O)[C@H](CO)NC(=O)[C@H](CCC(=O)O)NC(=O)[C@H](Cc2c[nH]c3ccccc23)NC(=O)[C@@H]2CCCN2C(=O)[C@@H](NC(=O)[C@@H]2CCCN2C(=O)[C@H](CCC(N)=O)NC(=O)[C@H](Cc2c[nH]c3ccccc23)NC(=O)[C@@H](N)CCCNC(=N)N)CSSC[C@@H](C(=O)N[C@@H](Cc2c[nH]c3ccccc23)C(=O)N[C@@H](CC(=O)O)C(=O)N2CCC[C@H]2C(=O)NCC(=O)NCC(=O)NCC(=O)N[C@@H](CCCCNC(=O)c2ccc3c(c2)C(=O)OC32c3ccc(O)cc3Oc3cc(O)ccc32)C(N)=O)NC(=O)[C@H](Cc2ccccc2)NC1=O [Seq023-CF5] (H-RWQPCPWESWTFCWDPGGGK(5FAM)-NH2; disulfide 5-13; N-terminus assumed)

More lines, now with the values behind:

Structure (SMILES)	Kd [µM]
CC(=O)N[C@@H](Cc1c[nH]c2ccccc12)C(=O)N[C@@H](CCC(N)=O)C(=O)N1CCC[C@H]1C(=O)N[C@H]1CSSC[C@@H](C(=O)N[C@@H](Cc2c[nH]c3ccccc23)C(=O)N[C@@H](CC(=O)O)C(=O)N2CCC[C@H]2C(=O)NCC(=O)NCC(=O)NCC(=O)N[C@@H](CCCCNC(=O)c2ccc3c(c2)C(=O)OC32c3ccc(O)cc3Oc3cc(O)ccc32)C(N)=O)NC(=O)[C@H](Cc2ccccc2)NC(=O)[C@H]([C@@H](C)O)NC(=O)[C@H](Cc2c[nH]c3ccccc23)NC(=O)[C@H](CO)NC(=O)[C@H](CCC(=O)O)NC(=O)[C@H](Cc2c[nH]c3ccccc23)NC(=O)[C@@H]2CCCN2C1=O [Seq000-CF5, reference compound] (Ac-WQPCPWESWTFCWDPGGGK(5FAM)-NH2; disulfide 4-12)	0.39
CC(=O)NCC(=O)N1CCC[C@H]1C(=O)N1CCC[C@H]1C(=O)NCC(=O)N[C@@H](Cc1c[nH]c2ccccc12)C(=O)N[C@@H](CCC(N)=O)C(=O)N1CCC[C@H]1C(=O)N[C@H]1CSSC[C@@H](C(=O)N[C@@H](Cc2c[nH]c3ccccc23)C(=O)N[C@@H](CC(=O)O)C(=O)N2CCC[C@H]2C(=O)NCC(=O)NCC(=O)NCC(=O)N[C@@H](CCCCNC(=O)c2ccc3c(c2)C(=O)OC32c3ccc(O)cc3Oc3cc(O)ccc32)C(N)=O)NC(=O)[C@H](Cc2ccccc2)NC(=O)[C@H]([C@@H](C)O)NC(=O)[C@H](Cc2c[nH]c3ccccc23)NC(=O)[C@H](CO)NC(=O)[C@H](CCC(=O)O)NC(=O)[C@H](Cc2c[nH]c3ccccc23)NC(=O)[C@@H]2CCCN2C1=O [Seq014-CF5] (Ac-GPPGWQPCPWESWTFCWDPGGGK(5FAM)-NH2; disulfide 8-16)	0.25
CC(=O)NCC(=O)NCC(=O)N[C@@H](CCCNC(=N)N)C(=O)NCC(=O)N[C@@H](Cc1c[nH]c2ccccc12)C(=O)N[C@@H](CCC(N)=O)C(=O)N1CCC[C@H]1C(=O)N[C@H]1CSSC[C@@H](C(=O)N[C@@H](Cc2c[nH]c3ccccc23)C(=O)N[C@@H](CC(=O)O)C(=O)N2CCC[C@H]2C(=O)NCC(=O)NCC(=O)NCC(=O)N[C@@H](CCCCNC(=O)c2ccc3c(c2)C(=O)OC32c3ccc(O)cc3Oc3cc(O)ccc32)C(N)=O)NC(=O)[C@H](Cc2ccccc2)NC(=O)[C@H]([C@@H](C)O)NC(=O)[C@H](Cc2c[nH]c3ccccc23)NC(=O)[C@H](CO)NC(=O)[C@H](CCC(=O)O)NC(=O)[C@H](Cc2c[nH]c3ccccc23)NC(=O)[C@@H]2CCCN2C1=O [Seq015-CF5] (Ac-GGRGWQPCPWESWTFCWDPGGGK(5FAM)-NH2; disulfide 8-16)	0.29
CC(=O)NCC(=O)N[C@@H](Cc1c[nH]c2ccccc12)C(=O)N[C@@H](CCC(N)=O)C(=O)N1CCC[C@H]1C(=O)N[C@H]1CSSC[C@@H](C(=O)N[C@@H](Cc2c[nH]c3ccccc23)C(=O)N[C@@H](CC(=O)O)C(=O)N2CCC[C@H]2C(=O)NCC(=O)NCC(=O)NCC(=O)N[C@@H](CCCCNC(=O)c2ccc3c(c2)C(=O)OC32c3ccc(O)cc3Oc3cc(O)ccc32)C(N)=O)NC(=O)[C@H](Cc2ccccc2)NC(=O)[C@H]([C@@H](C)O)NC(=O)[C@H](Cc2c[nH]c3ccccc23)NC(=O)[C@H](CO)NC(=O)[C@H](CCC(=O)O)NC(=O)[C@H](Cc2c[nH]c3ccccc23)NC(=O)[C@@H]2CCCN2C1=O [Seq016-CF5] (Ac-GWQPCPWESWTFCWDPGGGK(5FAM)-NH2; disulfide 5-13)	0.23
